Assay results: a melting point compilation (Tetko et al.; mined from patent text by program, amines drawn as free bases though some values may be those of a salt)

Structure (SMILES)	melting point
CNC(=O)c1cccnc1CC(=O)c1ccc(Cl)cc1	162 to 163 °C
CCCCCCC(=O)Nc1ccc(-n2nc(C(F)(F)F)cc2C(F)(F)F)cc1	88 to 90 °C
O=C1C=C(c2ccccc2)SCCN1	148 to 150 °C
CCCCCC[C@@H](CC(N)=O)N(CCC)C(=O)[C@H](CCCC(=O)O)NC(=O)c1cn(Cc2ccccc2)c2ccccc12	147 to 157 °C
CC(=O)Nc1ccc(C(=S)NN)cc1	220 to 221 °C
Cn1nc(C2CCN(CCn3c(=O)[nH]c4ccccc4c3=O)CC2)c2ccc(F)cc21	250 °C
CC1(C)Cc2c(c(N3CCCC3)nc3sc4c(NCc5ccc(S(C)(=O)=O)cc5)ncnc4c23)CO1	324 to 326 °C
C=C(CC)C(=O)c1ccc(OC2(C(=O)O)CCC2)c(Cl)c1Cl	120 °C
Cc1c(Sc2ccccc2S(C)(=O)=O)c2cc(NS(C)(=O)=O)ccc2n1CC(=O)O	227 to 230 °C
Cc1ccc(N(C(=O)CCl)c2c(Cl)cc(C)cc2Cl)cc1	140 to 141 °C
N#CCCCCCCNCc1ccc(O)cc1	42 to 44.5 °C
CS(=O)(=O)c1cccc(NC(=O)c2cnn3ccc(-c4ccc(Cl)cc4)nc23)c1	258 to 260 °C
CN1CCN(C2=Nc3ccccc3-n3ccc4cc(Br)cc2c43)CC1	157 to 159 °C
CCOC(=O)C1Cc2c(ccc(OC)c2OCc2ccccc2)CN1C(=O)C(c1ccccc1)c1ccccc1 (racemic)	111 to 113 °C
N#Cc1ccc2c(c1)C=C(C(=O)O)C(C(F)(F)F)O2 (configuration not stated)	102 to 106 °C
CCCN(Cc1ccc(-c2ccccc2-c2nnn[nH]2)cc1)c1ncncc1C(=O)OCC	160 to 162 °C
Cc1ccc(NC(=O)N=C2CCCN2C)cc1	136 to 137 °C
O=C(O)[C@H](Cc1cccs1)NN1C(=O)c2ccccc2C1=O	166 to 168 °C
CCCCC(CC)COC(=O)C(C#N)=Cc1ccc(-c2nc3ccccc3o2)cc1 (configuration not stated)	84 to 85 °C
CC(C)(C)OC(=O)NCc1ccccc1-c1ccccc1C(=O)O	136 °C
CC(C)n1nc(-c2c(-c3ccccc3)nc(N)nc2N2CCOCC2)ccc1=O	251 to 253 °C
COc1cc2c(cc1OC)CC(NCC(=O)O)C2	250 °C
CCN1C(=O)CSC1=NOC(=O)N(C)SC(Cl)(Cl)Cl	126 to 128 °C

Structure (SMILES)	melting point
COc1cc(Nc2nc3cccc(-c4ccc(C(N)=O)cc4)c3o2)cc(OC)c1OC	> 280 °C
Clc1cccc(Nc2ncnc3[nH]nc(NCc4ccc(-c5nccs5)cc4)c23)c1	241 to 243 °C
CC1(CNC(=O)C2CCCCC2)OCCc2c1[nH]c1ccccc21 (configuration not stated)	174 to 175 °C
CN1CCCC1=NC(=O)Nc1ccc(OCc2ccccc2)c(Cl)c1	115 to 117 °C
CCOC(CNC(=O)N(N=Cc1ccccc1)c1cc(Cl)c(Cc2ccc(Cl)cc2)c(Cl)c1)OCC	138 to 139 °C
CC(=O)OCCC(=O)C1CCC2C3CCC4CC(O)CCC4(C)C3C(=O)CC12C (configuration not stated)	113 to 115 °C
COc1ccc2c(c1)SSSSS2	97 to 98 °C
C=CCN1CCNC1=C[N+](=O)[O-]	97 to 98 °C
CCCCc1nn(-c2cc(NC(C)=O)ccc2Cl)c(=O)n1Cc1ccc(-c2cc(CCC)ccc2S(=O)(=O)NC(C)(C)C)cc1F	125 to 128 °C
CNC(C)C/C=C/c1cnc(N)c(C)c1 (configuration not stated)	78 to 81 °C
O=C1c2c(O)cccc2C(SCCO)c2cccc(O)c21	146 to 147 °C
CS(=O)(=O)c1ccc(Oc2ccc(C(=O)c3ccccc3)cc2)cc1	164 to 165 °C
COC(=O)c1ccc(C)cc1N	41 to 43 °C
O=NN1CCCSc2ccccc21	85 to 86 °C
CCOc1cccc(C(c2ncccc2OC)n2nc(C(=O)O)c3c2-c2ccc(OCc4cncnc4)cc2CC3)c1 (configuration not stated)	222 to 225 °C
NS(=O)(=O)c1ccc(-n2nc(C=O)cc2-c2ccccc2)cc1	177 to 180 °C
CC(CN(C)C)C(CNC(N)=O)(c1ccccc1)c1ccccc1 (configuration not stated)	226 to 228 °C
CSc1ccc(-c2ccc(C(CCC(=O)O)=NO)cc2)cc1	162 to 164 °C
CN1CCC2(CC1)c1ccccc1Oc1c(O)cccc12	171 to 173 °C
Cc1cn(-c2cc(C(=O)O)cc(C(F)(F)F)c2)cn1	> 300 °C
COc1cc2c(cc1C(=O)O)nnn2C(C)=O	208 to 212 °C
C1=C(c2ccccc2)CCN(Cc2n[nH]c3c2CCc2ccccc2-3)C1	175 to 176 °C

The remaining lines, values ahead:

melting point	Structure (SMILES)
98 to 99 °C	Cc1cc(C(=O)C(C)N2CCC(O)(c3ccccc3)CC2)ccc1OCc1ccccc1 (configuration not stated)
101 to 103 °C	CCn1nc(C)c2c(Cl)cc(-c3ccccc3)nc21
210 to 212 °C	O=C(O)c1cc(O)cc2ccccc12
130 to 132 °C	COc1ccc(/C(=C/C=C/C(=O)O)C2CCCCC2)cc1
138 to 140 °C	Cc1cc(O)ccc1NCCc1ccccn1
320 to 325 °C	O=C(CCl)NCc1ccc(-c2cc3c(Nc4ccc(F)c(Cl)c4)ncnc3[nH]2)cc1
150 to 152 °C	CSc1cc(S(F)(F)(F)(F)F)ccc1C(=O)O
205 °C	CN(C)c1ccc(C(NC(c2ccccc2)c2ccccc2)P(O)O)cc1 (configuration not stated)
120 to 122 °C	COc1cc(OC)c(-c2cc3ccccc3n2C(=O)OC(C)(C)C)cc1/C=C/C(=O)c1ccc(S(N)(=O)=O)cc1
155 to 158 °C	CCOCc1nc2c(N)nc3ccccc3c2n1CCCCS(N)(=O)=O
> 350 °C	O=c1[nH]c2cc(Cl)ccc2c(O)c1-c1ccc(OCc2ccccc2)cc1
172 to 174 °C	CC(C)(C)OC(=O)N[C@H](c1ccc(Cl)cc1)[C@H](c1ccc(Cl)cc1)[N+](=O)[O-]
87 to 90 °C	O=C(O)C1C2CCC(C2)C1C(F)(F)F (configuration not stated)
235 to 237 °C	O=C1CCC(N2Cc3c(OCc4ccccn4)cccc3C2=O)C(=O)N1 (configuration not stated)
193 to 197 °C	Cc1ccc(-c2nc3cccnc3n2CC(=O)N(C)C)s1
146 °C	CNC(=O)N(c1ccccc1)c1cccc2ccccc12
190 to 195 °C	O=C(c1ccc(F)cc1)n1c2c(c3ccccc31)CC(C(=O)O)(C(=O)O)CC2
157 to 159 °C	COc1nc(-c2ccc(Cl)cc2)nc(Cl)c1Cl
275 to 278 °C	Cn1cc(-c2cc(Cl)cc(Cl)c2)c(=O)c(-c2cc(Cl)cc(Cl)c2)c1

melting point	Structure (SMILES)
192 °C	Cc1noc(C)c1-c1ccc(F)cc1OC1SCC(O)C(O)C1O (configuration not stated)
147 to 148 °C	N#Cc1ccc(N(Cc2ccc(O)c(Br)c2)n2cnnc2)cc1-c1cc2ccccc2o1
113 to 115 °C	O=S(=O)(c1ccc(Cl)cc1)C(c1cc(F)ccc1F)c1cc(NCCOCCO)ncc1Cl (configuration not stated)
80 °C	COC(=O)C(C)(C)OCC#Cc1cc(Cl)ccc1NS(=O)(=O)c1ccc2nc(NC(C)=O)sc2c1
123 to 125 °C	CCn1c(=O)n(CCCCC(C)=O)c(=O)c2c1ncn2Cc1ccccc1
217 to 219 °C	CCCOc1ccccc1-c1nc2nc(S(C)(=O)=O)ncc2c(=O)[nH]1
88 to 90 °C	C=CCN1C(=O)C(C)N(c2ccc(OCc3ccccc3)cc2)C1=S (configuration not stated)
241 °C	N#Cc1ccc(Cn2c(=O)c(C#N)c(N3CCN(C(=O)c4cccs4)CC3)c3cccnc32)cc1
119 to 120 °C	O=C(NC(=O)C(F)(F)F)c1ccccc1-c1noc(-c2ccccc2F)n1
129 °C	CCOC(=O)C1=C(N)N=C(OCC)C(C(=O)OCC)C1c1cccc([N+](=O)[O-])c1 (configuration not stated)
55 to 56 °C	CCc1nc(-c2ccc(OCCCN3CCN(C)CC3)cc2)no1
267 to 268 °C	O=C(CN1c2nc(-c3ccncn3)cc(=O)n2CCC12CCN(C(=O)c1cccc(F)c1)C2)c1ccccc1 (configuration not stated)
126 °C	C=C(C)c1ccc2c(c1)C(=O)c1ccccc1C2=O
193 to 195 °C	C=C(C)CNc1cc(C(=O)O)cc(S(N)(=O)=O)c1Sc1ccc(NC(C)=O)cc1
248 to 250 °C	CC(=O)Oc1ccc(-c2[nH]c3ccc(Cl)cc3c2-c2ccc(S(C)(=O)=O)cc2)cc1
73 to 74 °C	COC(=O)CCCc1oc(Cl)nc1-c1ccc(Cl)cc1
51 to 53 °C	C=CCOC(=O)C(C)(C)ON1C(=O)c2ccccc2C1=O
176 to 178 °C	CSc1ccc(C(=O)c2cc(C)cc3c2NC(=O)C3)cc1
104 to 105 °C	COC(=O)CCC1OC(=O)N=C1c1ccccc1 (configuration not stated)

melting point	Structure (SMILES)
82 to 83 °C	N#CCC(=O)Cc1cccc(C(F)(F)F)c1
242 to 246 °C	CNc1nc(=O)c2cccnc2n1Cc1ccc(F)cc1
78 to 80 °C	CCOC(=O)C=C1CC(c2cccc(C3(c4ccc(OC(F)F)cc4)N=C(N)N(C)C3=O)c2)C1 (configuration not stated)
158 to 165 °C	Cc1nc(N)nc(N)c1C=CC(C)c1ccc(Cl)cc1 (configuration not stated)
102 to 103 °C	CCOc1cccc(-c2nc3n(n2)CCc2ccccc2-3)c1
177 to 179 °C	CN(C(=O)c1ccc2nonc2c1)C1CCN(S(C)(=O)=O)CC1
41 to 43 °C	CCOc1ccc([N+](=O)[O-])c(C)c1
167 to 171 °C	CCOC(=O)c1ccc2c(c1)S[C@@H](c1ccc(OC)cc1)[C@@H](OC(C)=O)C(=O)N2CCN(C)C (racemic)
222 to 223 °C	CS(=O)(=O)c1ccc(-n2cnc(Cl)c2-c2ccc(Cl)cc2)cc1
118 to 121 °C	Cc1ccc(C(=S)Nc2cc(F)ccc2F)cc1
58 to 61 °C	CCN(CC)CC(O)CONC(=O)NC(C)(C)C (configuration not stated)
97 to 98 °C	Nc1ccc(Cn2cc(C(F)(F)F)ccc2=O)cc1
134 to 136 °C	CCCN1CCN(C2=Nc3cc(Br)ccc3N3CCc4cccc2c43)CC1
57 °C	OCCc1ccc(N2CCOCC2)cc1
144 to 146 °C	O=C(OCC1(COC(=O)c2ccccc2)c2ccccc2-c2ccccc21)c1ccccc1
231 to 234 °C	CC(=O)Nc1ccc(CSc2nc3cnccc3[nH]2)cc1
176 to 178 °C	COC(=O)C1=Cc2cc(O)ccc2S(=O)(=O)CC1
83 to 86 °C	O=C1NC(=O)C(C2CC=CCC2)O1 (configuration not stated)
225 °C	N#CNc1nc2c(s1)Cc1cc(Cl)ccc1-2
